Drawing on PubChem BioAssay (NCI), this text covers GI50 and TGI for 16 molecules.

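Where inhibition never reached the appropriate level, the endpoint shown equals the highest concentration tested. Otherwise, values were interpolated linearly from a five-concentration, 48-hour dose response in 96-well plates. GI50 marks 50% less growth. TGI denotes the concentration required for complete inhibition of growth.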

In the first test the test system is MDA-MB-231 breast. In words: growth of human tumour cells (NCI), 48 h.
`COc1ccc(C2=NN(C(=O)c3cc(OC)c(OC)c(OC)c3)C(c3ccc(C#N)cc3)C2)cc1OC` (stereo not drawn): the GI50 was 2.86 µM and the TGI was more than 45.6 µM.

The next test deals with NCI-H460 lung. In words: growth of human tumour cells (NCI), 48 h.
On to `Cc1ccc(CS/C(=C\c2ccc([N+](=O)[O-])cc2)C(=O)c2ccc(F)cc2)cc1`, for which the GI50 was 6.44 µM and the TGI was 22.5 µM.

`CC[CH2][Pb]([CH2]CC)([CH2]CC)[O]C(=O)C(F)(F)F`: the GI50 is 0.113 µM and the TGI came out at 0.398 µM.

`CCOC(=O)CCc1cc(=O)oc2cc(O)cc(O)c12` yielded a TGI of more than 100 µM.

`CNC(=O)OCc1c(COC(=O)NC)c(-c2ccc(Cl)c(Cl)c2)n2c1SCC2` had a TGI of 19.9 µM.

In the case of `COc1cc(OC)cc(-c2ccc(-c3ccc(C(=N)N)o3)o2)c1`, the GI50 is 2.32 µM and the TGI amounted to 5.17 µM.

With `C[C@]12CC[C@H](O)CC1=CC[C@@H]1[C@@H]2CC[C@]2(C)C(c3cccnc3)=CC[C@@H]12`, the GI50 was more than 100 µM and the TGI is more than 100 µM.

As for `Cc1ccc2c(c1)C(=O)/C(=C/c1ncc([N+](=O)[O-])n1C)O2`, the GI50 was 2.05 µM and the TGI was 5.97 µM.

For the molecule `CC1OC(n2cc(F)c(=O)[nH]c2=O)CCC1O` (stereo not drawn), the TGI was more than 100 µM.

`O=C(NCCOCCOCCNc1cccc2c1C(=O)N(C1CCCNC1=O)C2=O)c1cc2c(o1)C(=O)c1ccccc1C2=O` (stereo not drawn): the GI50 is 1.85 µM and the TGI worked out at 3.59 µM.

As for `O=C(CN1CCOCC1)Nc1ccc(Cn2nnc3c2C(=O)c2nnn(Cc4ccc(NC(=O)CN5CCOCC5)cc4)c2C3=O)cc1`, the GI50 was 0.378 µM and the TGI amounted to 5.48 µM.

`O=C(O)Cn1ccc(=O)c2ccc([N+](=O)[O-])cc21` gave a TGI of more than 100 µM.

As to `O=C(c1ccco1)c1nc2ccc(C(F)(F)F)cc2[n+]([O-])c1C(F)(F)F`, the GI50 is 44 µM and the TGI is more than 100 µM.

Turning to `CCCCC/C(C=C(C#N)C#N)=C/c1ccccc1`, the GI50 is 3.22 µM and the TGI came to 12.2 µM.

In the case of `CC1CCC2(C(=O)O)CCC3(C)C(=CCC4C5(C)CC(O)C(O)C(C)(CO)C5C(O)CC43C)C2C1C` (stereo not drawn), the TGI is more than 100 µM.

`Cc1ccc(S(=O)(=O)N(CCOc2ccc(/C(N)=N/Cl)cc2)CCOc2ccc(/C(N)=N\Cl)cc2)cc1`: the GI50 is 5.62 µM and the TGI was 25.2 µM.

With `COc1ccc(C2=NN(C(=O)c3cc(OC)c(OC)c(OC)c3)C(c3ccc(C#N)cc3)C2)cc1OC` (stereo not drawn), the GI50 was 2.01 µM and the TGI was more than 100 µM.

Another test relates to OVCAR-3 ovarian. In words: growth of human tumour cells (NCI), 48 h.
Consider `Cc1ccc(CS/C(=C\c2ccc([N+](=O)[O-])cc2)C(=O)c2ccc(F)cc2)cc1`, for which the GI50 was 1.95 µM and the TGI stood at 4.02 µM.

For the molecule `CC[CH2][Pb]([CH2]CC)([CH2]CC)[O]C(=O)C(F)(F)F`, the GI50 was 0.0885 µM and the TGI was 0.239 µM.

`CCOC(=O)CCc1cc(=O)oc2cc(O)cc(O)c12` had a TGI of more than 100 µM.

As for `CNC(=O)OCc1c(COC(=O)NC)c(-c2ccc(Cl)c(Cl)c2)n2c1SCC2`, the TGI came to 25.2 µM.

On to `COc1cc(OC)cc(-c2ccc(-c3ccc(C(=N)N)o3)o2)c1`, for which the GI50 was 3.26 µM and the TGI worked out at 11.3 µM.

For the molecule `C[C@]12CC[C@H](O)CC1=CC[C@@H]1[C@@H]2CC[C@]2(C)C(c3cccnc3)=CC[C@@H]12`, the GI50 is 82.1 µM and the TGI was more than 100 µM.

As to `Cc1ccc2c(c1)C(=O)/C(=C/c1ncc([N+](=O)[O-])n1C)O2`, the GI50 is 2.53 µM and the TGI stood at 6.55 µM.

Molecule `CC1OC(n2cc(F)c(=O)[nH]c2=O)CCC1O` (stereo not drawn) returned a TGI of more than 100 µM.

For the molecule `O=C(NCCOCCOCCNc1cccc2c1C(=O)N(C1CCCNC1=O)C2=O)c1cc2c(o1)C(=O)c1ccccc1C2=O` (stereo not drawn), the GI50 was 0.682 µM and the TGI was found to be 2.69 µM.

Consider `O=C(CN1CCOCC1)Nc1ccc(Cn2nnc3c2C(=O)c2nnn(Cc4ccc(NC(=O)CN5CCOCC5)cc4)c2C3=O)cc1`, for which the GI50 was 0.25 µM and the TGI came out at 0.836 µM.

In the case of `O=C(O)Cn1ccc(=O)c2ccc([N+](=O)[O-])cc21`, the TGI was more than 100 µM.

On to `O=C(c1ccco1)c1nc2ccc(C(F)(F)F)cc2[n+]([O-])c1C(F)(F)F`, for which the GI50 was 98.8 µM and the TGI was more than 100 µM.

In the case of `CCCCC/C(C=C(C#N)C#N)=C/c1ccccc1`, the GI50 is 2.26 µM and the TGI was 11.2 µM.

For the molecule `CC1CCC2(C(=O)O)CCC3(C)C(=CCC4C5(C)CC(O)C(O)C(C)(CO)C5C(O)CC43C)C2C1C` (stereo not drawn), the TGI amounted to 50.8 µM.

`Cc1ccc(S(=O)(=O)N(CCOc2ccc(/C(N)=N/Cl)cc2)CCOc2ccc(/C(N)=N\Cl)cc2)cc1`: the GI50 is 5.99 µM and the TGI was 31 µM.

With `COc1ccc(C2=NN(C(=O)c3cc(OC)c(OC)c(OC)c3)C(c3ccc(C#N)cc3)C2)cc1OC` (stereo not drawn), the GI50 is 0.478 µM and the TGI was determined as 2.35 µM.

The test system of the next test is SK-MEL-28 melanoma. In words: growth of human tumour cells (NCI), 48 h.
As for `Cc1ccc(CS/C(=C\c2ccc([N+](=O)[O-])cc2)C(=O)c2ccc(F)cc2)cc1`, the GI50 is 5.46 µM and the TGI amounted to 26.5 µM.

Turning to `CC[CH2][Pb]([CH2]CC)([CH2]CC)[O]C(=O)C(F)(F)F`, the GI50 was 0.124 µM and the TGI was 0.452 µM.

Molecule `CCOC(=O)CCc1cc(=O)oc2cc(O)cc(O)c12` registered a TGI of more than 100 µM.

As for `CNC(=O)OCc1c(COC(=O)NC)c(-c2ccc(Cl)c(Cl)c2)n2c1SCC2`, the TGI worked out at 37.3 µM.

Take `COc1cc(OC)cc(-c2ccc(-c3ccc(C(=N)N)o3)o2)c1`: the GI50 was 1.82 µM and the TGI was found to be 3.67 µM.

For `C[C@]12CC[C@H](O)CC1=CC[C@@H]1[C@@H]2CC[C@]2(C)C(c3cccnc3)=CC[C@@H]12`, the GI50 was 61.3 µM and the TGI is more than 100 µM.

As to `Cc1ccc2c(c1)C(=O)/C(=C/c1ncc([N+](=O)[O-])n1C)O2`, the GI50 is 2.34 µM and the TGI was 7.29 µM.
